Test results taken from patent US10101322B2, “Photoactivated chemical bleaching of dyes using borates” (GENERAL ELECTRIC COMPANY, priority 2015, dated 2018).
Entries after “also recorded” stand apart in the source; their conditions may differ.

Key:
[1] = Eosin Y bleaching with borates in water; conditions: aqueous solution; in Example 2A 0.5 mM borate, 1 minute, 100 W halogen lamp
Protocol: To a 2 mL solution of Eosin in water (2.26×10^-5M solution), 2 mL of 0.5 mM of cationic Borate (e′), Cationic Borate (f′) or anionic borate (MBB) were added, and the solution was irradiated for 1 minute using 100 W halogen lamp. […] FIG. 6 is a bar graph comparing bleaching kinetics of eosin by different borates MBB (a), e′ (b), and f′ (c).

[2] = Eosin Y bleaching with borates in ethanol; conditions: 1 mM borate, 2 min irradiation, 100 W halogen lamp
Protocol: To a 2 mL solution of Eosin in ethanol (2.5×10^-5M solution), 2 mL of 1 mM of anionic borate (MBB), a neutral borate a, (Formula I) or a neutral borate b (Formula I) were added and the solution was irradiated for 1-2 minutes using 100 W halogen lamp. Absorbance at λmax of dye was measured to monitor photobleaching, and the results were plotted, as is shown in the bar graph plot of FIG. 7.

[3] = Cy3 dye bleaching with borates in ethanol; conditions: 1 mM borate, 1 minute, 100 W halogen lamp, absorbance at 552 nm
Protocol: To a 2 mL solution of previously hydrolyzed Cy3 bisreactive dye (GE Healthcare) in ethanol (2.5×10^-5M solution), 2 mL of 1 mM solution of one of the following borates: anionic borate (MBB), neutral borate, a or b (Formula I), and cationic borates e′ or f′ in ethanol was added. Samples were irradiated for 1 minute using 100 W halogen lamp. The decrease in Cy3 absorbance at 552 nm was measured to monitor photobleaching, and the results were plotted, as is shown in FIG. 8. The bar graph compares the bleaching kinetics of Cy3 by different borates in ethanol.

[4] = Cy3 bleaching with borates in water; conditions: aqueous solution; in Example 2D 0.5 mM borate, 100 W halogen lamp, absorbance at 552 nm
Protocol: To a 2 mL solution of previously hydrolyzed Cy3 bis reactive dye in water (3.4×10^-5M solution), 2 mL of 0.5 mM solution of anionic borate (MBB), cationic borate (e′) or cationic borate (f′) were added and the solution was irradiated. […] FIG. 10 is a bar graph comparing bleaching kinetics of Cy3 by different borates.

[5] = Charge transfer complex formation between Eosin-Y and cationic borate (UV-Vis titration); assay type: physicochemical; conditions: without irradiation
Protocol: A 50 ul of 1 mM eosin solution in water was further diluted to 3 ml with water and to this was added 1 mM solution of f′ (Formula I) in water in 25 ul portions. UV-Vis spectrum was acquired after every 25 μL f′ addition.
This is believed to be due an electrostatic charge-transfer complex formulation between cationic borate: eosin-y complex.
This phenomenon may be attributed to formation of charge-transfer complex between anionic Eosin-Y and cationic Borate. The electrostatic charge transfer formation is responsible for quenching of Eosin-Y fluorescence.

[6] = Residual eosin bleaching (PICB) in H&E stained tissue sections; parameters: species or system Human; conditions: 0.15 mM f′, irradiation in presence of DABCO, three cycles
Protocol: Human breast tissue array samples were obtained as tissue slides embedded in paraffin from Clarient (Huntsville, Ala.). Slides were baked at 60° C. for 15 minutes and then washed with xylene (1×10 min) to remove paraffin.
All the slides were stained with hematoxylin and eosin and coverslipped following the standard procedures in the literature (IHC World LLC, Protocol Database, Hematoxylin and Eosin (H&E) Staining Protocol). After staining, the images were obtained as described below.
Bright field and Fluorescence images were taken for all the slides using Leica bright field microscope and Olympus IX81 fluorescence microscope (Olympus Co., Tokyo, Japan respectively. For fluorescence imaging the following excitation filters were used: eosin 500/40 nm, Cy3 550/40 nm and Cy5 650/40 nm.
After imaging, samples were decoverslipped by incubation in xylenes overnight and hydrated by washing in four solutions of ethanol with concentrations decreasing in the order of 100%, 95%, 70%, and 50% followed by a wash with 1× phosphate buffer saline (PBS, pH 7.4). After rehydration, the slides were washed with 1×PBS. A ten minute incubation in 0.3% Triton X-100 in PBS was performed for membrane permeabilization of the tissue, followed by a wash with 1×PBS.
Hydrated slides were treated with dual-buffer heat-induced epitope retrieval. […] Slides were imaged by brightfield and fluorescence microscopy. […]

[7] = test system: Her2/CEP17 DNA FISH signal; test: DNA FISH signal bleaching and FISH on PICB bleached slides; parameters: species or system Human
Protocol: Slides were H&E stained and bleached as described above. Alternatively previously imaged and archived H&E slides were processed through the steps of decoverslipping, hydration, antigen retrieval, blocking and bleaching with f′ as described above for freshly stained H&E slides.
Slides were immersed in a pre-warmed 0.1% pepsin solution for 8 minutes then placed in room temperature PBS for 2 minutes. Samples were re-fixed in 4% formalin for 10 minutes then washed 2×5 minutes in PBS. Slides were dehydrated in ethanol series 50%, 70%, and 95%, 2 minutes each and allowed to dry on bench top for 10 minutes. Pre-mixed dual Her2/CEP17 probe was vortexed, spun, and added to samples. Samples were coverslipped and sealed with a rubber sealant per usual practice. After allowing rubber cement to cure for 10 minutes, probes were hybridized in Thermobrite cycler: 80° C. denaturation for 10 minutes followed by 37° C. incubation overnight. Rubber cement was removed and slides were decoverslipped in preheated 37° C. 2×SSC for 5 minutes. […] Slides were washed 2×2 minutes with 2×SSC, removed from buffer to dry, coverslipped with 4% DABCO in 90% glycerol/2×SSC, and imaged on an Olympus IX81 fluorescence microscope using a 40× objective with following exposure times: for DAPI (2 ms), spectrum green (CEP17-200 ms), and spectrum orange (Her2-400 ms). […]

[8] = Stability of solid borate on exposure to air (1H NMR, colour)

Structure (SMILES) | Eosin-Y photobleaching compared to anionic borate (MBB) [1] | order of Eosin photobleaching kinetics [2] | Cy3 bleaching kinetics [3] | Cy3 bleaching kinetics compared to anionic borate (MBB) [4] | bathochromic (red-shift) of the Eosin-Y peak ([5]; 1 mM f′ added in 25 ul portions to eosin in water) | colour change of eosin solution on borate addition ([5]; water) | bleaching of residual eosin signal in tissue [6] | bleaching of DNA FISH signal [7] | decomposition ([8]; after 2 months of exposure to air) [%] | degradation by 1 HNMR ([8]; solid form, exposure to air for over 5 weeks) | time to evidence of decomposition ([8]; exposure to air) [min] | colour change on exposure to air ([8]; white solid stored inertly)
C[N+](C)(C)c1ccc([B-](c2ccc([N+](C)(C)C)cc2)(C2CCCC2)C2CCCC2)cc1.[I-] [e′] | improved | cationic>neutral>anionic | performed well | much faster bleaching kinetics | – | – | – | – | – | – | – | –
COS(=O)(=O)[O-].C[N+](C)(C)c1ccc([B-](c2ccc([N+](C)(C)C)cc2)(C2CCCC2)C2CCCC2)cc1 [f′] | significantly improved | cationic>neutral>anionic | performed well | significantly improved; also recorded: much faster bleaching kinetics | 518 nm shifts to 523 nm | clear change in color to non-fluorescent pink | efficient bleaching; also recorded: efficiently bleach eosin; also recorded: effective bleaching; also recorded: mostly removed | erased | ~2 | no degradation | – | –
c1ccc(C[B-](c2ccccc2)(c2ccccc2)c2ccccc2)cc1 [MBB, monobenzyltriphenyl borate, reference compound] | – | cationic>neutral>anionic | – | – | – | – | – | – | – | – | < 10 | becoming yellow in color immediately on exposure to air
